Consider five compounds from US20120101253A1, “STRUCTURED POLYCYCLIC PEPTIDE” (priority 2009, published 2012).

Where two headings read alike, the source gives them in different places. Residues, ends and D or L forms follow the SMILES beside them.

For one series, the target named is MDM2 (res 2-125) (Homo sapiens, UniProt Q00987). In words: Fluorescence anisotropy titration, binding to MDM2. The method, then: Titration experiments were run on a Horiba Jobin Yvon fluorimeter equipped with the Hamilton Microlab titrator controlled by laboratory software. […] The slit widths for excitation and emission were 5 nm and 15 nm and the integration time 10 s was used for each measurement. The intrinsic fluorescence of tryptophan in peptides 10, 48 was used to measure their binding affinity for MDM2 (res 2-125). The experiments were performed at 23C° in PBS, 5 mM DTT. Usually 250 μl of MDM2 (150 μM) was titrated into 1.2 ml of peptide (1 uM). Titration data were analyzed with a standard 1:1 binding model by using the quadratic solution to the equilibrium Kd=[A][B]/[AB]. […] The fitting equation contained an extra term to account for linear drift.
Chain of MDM2 (res 2-125) (Q00987 2-125): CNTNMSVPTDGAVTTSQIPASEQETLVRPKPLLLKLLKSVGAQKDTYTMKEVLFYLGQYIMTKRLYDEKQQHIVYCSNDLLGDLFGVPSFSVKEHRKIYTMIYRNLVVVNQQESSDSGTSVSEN
(In general: Fluorescence polarisation rises when a labelled molecule tumbles more slowly, as on binding a larger partner.)

In series [1] the target is T1, human plasma kallikrein (Homo sapiens, UniProt P03952).
T1 construct: purchased Innovative Research, Southfiled, USA
T1 sequence (P03952 391-638 limits assumed): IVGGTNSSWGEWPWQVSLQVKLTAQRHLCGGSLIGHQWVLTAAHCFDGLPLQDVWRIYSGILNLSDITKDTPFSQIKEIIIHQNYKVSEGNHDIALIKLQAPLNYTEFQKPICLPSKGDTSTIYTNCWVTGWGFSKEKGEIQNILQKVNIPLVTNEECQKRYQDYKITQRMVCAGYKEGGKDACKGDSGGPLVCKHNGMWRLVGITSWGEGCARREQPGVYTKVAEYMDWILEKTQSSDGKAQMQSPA
T1 sequence (P03952 20-390 partner limits assumed): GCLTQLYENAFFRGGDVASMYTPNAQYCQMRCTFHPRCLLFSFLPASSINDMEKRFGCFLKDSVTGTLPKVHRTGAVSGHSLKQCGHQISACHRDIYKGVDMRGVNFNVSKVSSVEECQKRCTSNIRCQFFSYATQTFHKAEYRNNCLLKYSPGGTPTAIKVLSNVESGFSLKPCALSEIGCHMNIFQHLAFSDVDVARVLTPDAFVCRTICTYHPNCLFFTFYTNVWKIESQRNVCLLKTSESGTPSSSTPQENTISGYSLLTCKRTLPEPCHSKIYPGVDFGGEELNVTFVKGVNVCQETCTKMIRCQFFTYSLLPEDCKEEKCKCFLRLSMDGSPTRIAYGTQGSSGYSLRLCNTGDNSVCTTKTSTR
In words: Inhibition of human plasma kallikrein, fluorogenic substrate Z-Phe-Arg-AMC. The format is biochemical. Conditions: for inhibition of human plasma kallikrein, fold weaker than parental inhibitor PK15: tricyclic peptides. The method, then: Fluorescence intensities were recorded for 1 hour with excitation and emission wavelengths of 355 nm and 460 nm on a fluorescence plate reader (Molecular Devices, Sunnyvale, USA).

For series [2], the target named is T1, human plasma kallikrein. Conditions: Heinis et al., 2009; cited from earlier work.
The target of series [3] is T2, leucyl aminopeptidase from Aeromonas proteolytica (Vibrio proteolyticus, UniProt Q01693).
T2 construct: purchased Sigma A8200
T2 sequence (Q01693 107-405 limits assumed): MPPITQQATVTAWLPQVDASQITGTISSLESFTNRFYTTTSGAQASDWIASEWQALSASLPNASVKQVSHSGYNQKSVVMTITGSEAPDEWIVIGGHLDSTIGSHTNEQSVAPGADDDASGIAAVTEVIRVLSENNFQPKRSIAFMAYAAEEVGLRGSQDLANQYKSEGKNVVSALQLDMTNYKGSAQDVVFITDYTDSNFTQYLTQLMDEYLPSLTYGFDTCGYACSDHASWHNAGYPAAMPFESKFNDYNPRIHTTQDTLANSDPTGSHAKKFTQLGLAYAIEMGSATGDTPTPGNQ
In words: Aminopeptidase treatment of peptides (MALDI-TOF). The format is in vitro ADME. The protocol:
Peptide 7 before (300 μM) and after (75 μM) MTGase treatment in reaction buffer was incubated with different amounts of leucyl aminopeptidase from Aeromonas proteolytica (EC 3.4.11.10; Sigma, A8200) (3 to 352 ng, corresponding to concentrations of about 50 nM to 6 μM) in a final volume of 2 μl for 30 min at RT. The mass of the peptides was determined by MALDI-TOF mass spectrometry.

For the next series, the target named is T3, MDM2 peptide (res 2-125) (Homo sapiens, UniProt Q00987).
T3 construct: biotinylated MDM2 peptide (res 2-125) was immobilized on a streptavidin-coated plate
T3 sequence (Q00987 2-125): as the sequence (Q00987 2-125) above
Description: Competition ELISA of PEP48 phage binding to MDM2. Conditions: TBMB conjugate. The text has this:
Phage was detected using an anti-M13-HRP monoclonal antibody (1:5000, Amersham).
On the technique in general: An ELISA detects its analyte on a solid surface through an enzyme-linked reagent.

Where [4] appears, read: IC50 Before MTGase cyclisation (bicyclic), bicyclic TBMB conjugates.
Setting [5] is: IC50 After MTGase cyclisation (tricyclic), tricyclic peptides after MTGase treatment.

Regarding `CC(C)C[C@@H]1NC(=O)[C@H](CCC(=O)O)NC(=O)[C@@H](NC(=O)[C@@H](N)CO)CSCc2cc3cc(c2)CSC[C@H](NC(=O)[C@H](CCCCN)NC(=O)[C@@H]2CCCN2C(=O)[C@H](CC(N)=O)NC(=O)[C@H](Cc2c[nH]c4ccccc24)NC1=O)C(=O)N[C@@H](CCCNC(=N)N)C(=O)N[C@@H](CC(C)C)C(=O)N[C@@H](CO)C(=O)N1CCC[C@H]1C(=O)N[C@@H](Cc1ccccc1)C(=O)N[C@@H](CCC(=O)O)C(=O)N[C@H](C(=O)N[C@@H](CCCCN)C(=O)NCC(=O)O)CSC3` [PEP10] (HELM PEPTIDE1{S.C.E.L.W.N.P.K.C.R.L.S.P.F.E.C.K.G}|CHEM1{[c1c(C[*:1])cc(C[*:3])cc1C[*:2]]}$PEPTIDE1,CHEM1,2:R3-1:R1|PEPTIDE1,CHEM1,9:R3-1:R2|PEPTIDE1,CHEM1,16:R3-1:R3$$$V2.0; bridges inferred), the “affinity of synthetic peptide for MDM2” value at MDM2 (res 2-125) is reported as “micromolar or better”.
Consider `[H][C@@]12CCCN1C(=O)[C@]1([H])CSCc3cc(cc(c3)CSC[C@@H](C(=O)NCC(N)=O)NC(=O)[C@H](CC(C)C)NC(=O)[C@H](C)NC(=O)[C@H](CCC(=O)O)NC(=O)[C@H](CC(=O)O)NC(=O)[C@H](C)NC2=O)CSC[C@H](NC(=O)[C@H](C)N)C(=O)N[C@@H](CO)C(=O)N[C@@H](CC(=O)O)C(=O)N[C@@H](CCCNC(=N)N)C(=O)N[C@@H](Cc2ccccc2)C(=O)N[C@@H](CCCNC(=N)N)C(=O)N[C@@H](CC(N)=O)C(=O)N1` [PK15, reference compound] (HELM PEPTIDE1{A.C.S.D.R.F.R.N.C.P.A.D.E.A.L.C.G.[am]}|CHEM1{[c1c(C[*:1])cc(C[*:3])cc1C[*:2]]}$PEPTIDE1,CHEM1,2:R3-1:R1|PEPTIDE1,CHEM1,9:R3-1:R2|PEPTIDE1,CHEM1,16:R3-1:R3$$$V2.0), for which, at human plasma kallikrein [1] (setting [4]), it took 3 nM to reach half-maximal inhibition (IC50). Also, the “factor of activity reduction on C-terminal conjugation to a protein” value at human plasma kallikrein [2] was “around 10”.
Turning to `CC(C)C[C@H](NC(=O)[C@H](C)N)C(=O)N[C@@H](CCC(N)=O)C(=O)N[C@@H](C)C(=O)N[C@H]1CSCc2cc3cc(c2)CSC[C@H](NC(=O)[C@H](CC(N)=O)NC(=O)[C@H](CCCNC(=N)N)NC(=O)[C@H](Cc2ccccc2)NC(=O)[C@H](CCCNC(=N)N)NC(=O)[C@H](CC(=O)O)NC(=O)[C@H](CO)NC1=O)C(=O)N1CCC[C@H]1C(=O)N[C@@H](C)C(=O)N[C@@H](CC(=O)O)C(=O)N[C@@H](CCC(=O)O)C(=O)N[C@@H](C)C(=O)N[C@@H](CC(C)C)C(=O)N[C@H](C(=O)N[C@@H](C)C(=O)N[C@@H](CCCCN)C(=O)N[C@@H](CO)C(N)=O)CSC3` [peptide 7] (HELM PEPTIDE1{A.L.Q.A.C.S.D.R.F.R.N.C.P.A.D.E.A.L.C.A.K.S.[am]}|CHEM1{[c1c(C[*:1])cc(C[*:3])cc1C[*:2]]}$PEPTIDE1,CHEM1,5:R3-1:R1|PEPTIDE1,CHEM1,12:R3-1:R2|PEPTIDE1,CHEM1,19:R3-1:R3$$$V2.0), the IC50 against human plasma kallikrein [1] (setting [5]) is 200 nM; against human plasma kallikrein [1] (setting [4]) it was 259 nM. Moreover, the “inhibition of human plasma kallikrein, fold weaker than parental inhibitor PK15” value on human plasma kallikrein [1] was “about 70 fold”. In series [3] (bicyclic peptide, 30 min at RT), the “amount of exopeptidase at which exocyclic amino acids (Ala-Leu-Gln-Ala) were degraded” value is listed as at least 70 ng. In series [3] (tricyclic peptide, compared with bicyclic), the “exopeptidase needed to degrade the Gln-Ala dipeptide” value was “higher exopeptidease concentrations were required”.
On to `CC(C)C[C@@H]1NC(=O)[C@H](C)NC(=O)[C@H](CCC(=O)O)NC(=O)[C@H](CC(=O)O)NC(=O)[C@H](C)NC(=O)[C@@H]2CCCN2C(=O)[C@@H]2CSCc3cc(cc(c3)CSC[C@@H](C(=O)N[C@@H](C)C(=O)N[C@@H](CCCCN)C(=O)N[C@@H](CO)C(N)=O)NC1=O)CSC[C@H](NC(=O)[C@H](C)NC(=O)[C@H](CCC(N)=O)NC(=O)[C@H](CC(C)C)NC(=O)[C@H](C)NC(=O)[C@@H](N)Cc1c[nH]c3ccccc13)C(=O)N[C@@H](CO)C(=O)N[C@@H](CC(=O)O)C(=O)N[C@@H](CCCNC(=N)N)C(=O)N[C@@H](Cc1ccccc1)C(=O)N[C@@H](CCCNC(=N)N)C(=O)N[C@@H](CC(N)=O)C(=O)N2` [peptide 8] (HELM PEPTIDE1{W.A.L.Q.A.C.S.D.R.F.R.N.C.P.A.D.E.A.L.C.A.K.S.[am]}|CHEM1{[c1c(C[*:1])cc(C[*:3])cc1C[*:2]]}$PEPTIDE1,CHEM1,6:R3-1:R1|PEPTIDE1,CHEM1,13:R3-1:R2|PEPTIDE1,CHEM1,20:R3-1:R3$$$V2.0), for which the IC50 against human plasma kallikrein [1] (setting [5]) is 196 nM; against human plasma kallikrein [1] (setting [4]) it was 185 nM. In addition, the “inhibition of human plasma kallikrein, fold weaker than parental inhibitor PK15” value on human plasma kallikrein [1] is on record as “about 70 fold”.
For “H-SCVRFGWTCDNSWHGCKG-OH (cysteine pairing not given here) [PEP48, bicyclic peptide selected against MDM2]”, the “affinity of synthetic peptide for MDM2” value at MDM2 (res 2-125) is recorded as “micromolar or better”. The Kd at MDM2 (res 2-125) (entire bicyclic peptide, read-out: binding affinity (Kd) for MDM2) was 500 to 800 nM; on MDM2 (res 2-125) (measured λex=280 nm, read-out: Kd, peptide + MDM2), 760 nM; at MDM2 (res 2-125) (measured λex=295 nm, read-out: Kd, peptide + MDM2), 567 nM. Further, the “binding site on MDM2 by competition ELISA” value at MDM2 peptide (res 2-125) is listed as “bind to the same site as a linear peptide previously shown to block the p53-MDM2 interaction”.

One may read the IC50 as the concentration at which inhibition is half-maximal. A lower IC50 goes with greater potency. For orientation: Kd means the constant that tells how readily two partners part at equilibrium.
